Counter-ions that a name gives are not always drawn.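 Five concentrations, 48 hours, 96-well plates. GI50: concentration for 50% inhibition of growth.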 Calls of active or inactive are those of the source. Rule as the data show it: active = GI50 up to about 1.1 µM and inactive = higher.
Experiments:
Test in all cases: NCI-60 cell line screen, 48 h
COLO 205 = tested on: COLO 205
MOLT-4 = tested on: MOLT-4
CAKI-1 = tested on: CAKI-1
SNB-75 = tested on: SNB-75
HCC 2998 = tested on: HCC 2998
LOX IMVI = tested on: LOX IMVI
HOP-18 = tested on: HOP-18
M14 = tested on: M14
HCT-15 = tested on: HCT-15
UO-31 = tested on: UO-31
UACC-257 = tested on: UACC-257
HCT-116 = tested on: HCT-116
RPMI-8226 = tested on: RPMI-8226
U-251 = tested on: U-251
Malme-3M = tested on: Malme-3M
HOP-62 = tested on: HOP-62
PC-3 = tested on: PC-3
BT-549 = tested on: BT-549
T47D = tested on: T47D
SR = tested on: SR

Compound | GI50 (COLO 205) | GI50 (MOLT-4) | GI50 (CAKI-1) | GI50 (SNB-75) | GI50 (HCC 2998) | GI50 (LOX IMVI) | GI50 (HOP-18) | GI50 (M14) | GI50 (HCT-15) [µM] | GI50 (UO-31) | GI50 (UACC-257) | GI50 (HCT-116) | GI50 (RPMI-8226) | GI50 (U-251) | GI50 (Malme-3M) | GI50 (HOP-62) | GI50 (PC-3) | GI50 (BT-549) | GI50 (T47D) | GI50 (SR)
COc1ccc2c(c1)C(O)(C(F)(F)F)c1cc(C(=O)C(F)(F)F)c3ccccc3c1N2 (stereo unspecified) | 6.75 µM (inactive) | 8.99 µM (inactive) | 13.7 µM (inactive) | 16.9 µM (inactive) | 11.9 µM (inactive) | 4.99 µM (inactive) | 17.4 µM (inactive) | 5.33 µM (inactive) | 7.35 | 9.86 µM (inactive) | 13.5 µM (inactive) | – | – | – | – | – | – | – | – | –
COC(=O)C1=CO[C@@H](C)[C@@H]2Cn3ccc4c5ccccc5nc-4c3C[C@H]12 [ALSTONINE HYDROCHLORIDE] | > 100 µM (inactive) | 90.6 µM (inactive) | – | > 100 µM (inactive) | – | > 100 µM (inactive) | 32.7 µM (inactive) | > 100 µM (inactive) | > 100 | > 100 µM (inactive) | > 100 µM (inactive) | > 100 µM (inactive) | 84.3 µM (inactive) | > 100 µM (inactive) | > 100 µM (inactive) | > 100 µM (inactive) | – | – | – | –
Cc1cc(C)nc(NS(=O)(=O)c2ccc(NC(=O)c3ccc(Cl)c4c(Nc5ccc(S(=O)(=O)Nc6nc(C)cc(C)n6)cc5)c5ccccc5nc34)cc2)n1 | 15.9 µM (inactive) | 4.5 µM (inactive) | 42.3 µM (inactive) | 21.3 µM (inactive) | – | 3.91 µM (inactive) | 2.32 µM (inactive) | 2.64 µM (inactive) | 26.9 | 24.9 µM (inactive) | 27.7 µM (inactive) | 1.82 µM (inactive) | 3.72 µM (inactive) | 3.24 µM (inactive) | 14.4 µM (inactive) | 6.44 µM (inactive) | – | – | – | –
CCN(CC)CCCn1c(=O)c2ccccc2n2c3c(=O)n(C)c(=O)n(C)c3nc12 | 5.09 µM (inactive) | 0.619 µM (active) | 1.43 µM (inactive) | 5.92 µM (inactive) | 8.95 µM (inactive) | 3.03 µM (inactive) | – | 12.3 µM (inactive) | 5.83 | 4.47 µM (inactive) | 10.9 µM (inactive) | 4.65 µM (inactive) | 4.66 µM (inactive) | 3.03 µM (inactive) | 8.99 µM (inactive) | 2.77 µM (inactive) | 8.39 µM (inactive) | 2.47 µM (inactive) | 17.1 µM (inactive) | 0.394 µM (active)
COc1cc2c(OC)c(c1)CCCC1=CC(=O)C=C(CCC2)C1=O | 21.9 µM (inactive) | 2.72 µM (inactive) | > 100 µM (inactive) | > 60.3 µM (inactive) | 43.5 µM (inactive) | 16.6 µM (inactive) | – | 26.7 µM (inactive) | 33.6 | 43.9 µM (inactive) | 35 µM (inactive) | 17.1 µM (inactive) | 7.6 µM (inactive) | 40.1 µM (inactive) | 10.4 µM (inactive) | 78.7 µM (inactive) | 28.6 µM (inactive) | 33.3 µM (inactive) | 23.2 µM (inactive) | 3.54 µM (inactive)
O=C1Nc2cccc(Cl)c2/C1=C\c1c(Cl)nc2n1CCS2 | > 100 µM (inactive) | > 100 µM (inactive) | > 100 µM (inactive) | > 100 µM (inactive) | > 100 µM (inactive) | > 100 µM (inactive) | – | > 100 µM (inactive) | 96.6 | > 100 µM (inactive) | > 100 µM (inactive) | > 100 µM (inactive) | > 100 µM (inactive) | > 100 µM (inactive) | > 100 µM (inactive) | > 100 µM (inactive) | > 100 µM (inactive) | > 100 µM (inactive) | 48.3 µM (inactive) | > 100 µM (inactive)
O=c1[nH]c(C2CCCCC2)nc2c(Cl)cccc12 | > 100 µM (inactive) | – | > 100 µM (inactive) | > 100 µM (inactive) | > 100 µM (inactive) | – | > 100 µM (inactive) | > 100 µM (inactive) | > 100 | > 100 µM (inactive) | > 100 µM (inactive) | > 100 µM (inactive) | – | > 100 µM (inactive) | > 100 µM (inactive) | > 100 µM (inactive) | – | – | – | –
N#CCCN(CCC#N)c1ccc(/C=C2\SC(=S)NC2=O)cc1Br | > 100 µM (inactive) | > 100 µM (inactive) | > 100 µM (inactive) | 17.8 µM (inactive) | > 100 µM (inactive) | 23.1 µM (inactive) | – | > 100 µM (inactive) | > 100 | > 100 µM (inactive) | > 100 µM (inactive) | > 100 µM (inactive) | > 100 µM (inactive) | 17.3 µM (inactive) | 16.9 µM (inactive) | 15.3 µM (inactive) | > 100 µM (inactive) | 37.3 µM (inactive) | > 100 µM (inactive) | > 100 µM (inactive)
N#CC(C#N)=C1SC(=N\c2ccccc2)/C(=N/c2ccccc2)N1c1ccccc1 | 10.1 µM (inactive) | 2.24 µM (inactive) | 11.8 µM (inactive) | 30 µM (inactive) | 15.2 µM (inactive) | 10.7 µM (inactive) | – | 25.3 µM (inactive) | 2.03 | 12.7 µM (inactive) | 15.7 µM (inactive) | 14.4 µM (inactive) | 5.75 µM (inactive) | 15.6 µM (inactive) | 22.2 µM (inactive) | 27.7 µM (inactive) | 7.6 µM (inactive) | 8.24 µM (inactive) | 5.38 µM (inactive) | 3.03 µM (inactive)
Cc1cccc2nc3cccc(C(=O)NCCC[N+](C)(CCCNC(=O)c4cccc5nc6cccc(C)c6nc45)Cc4c([N+](=O)[O-])ncn4C)c3nc12 | 0.705 µM (active) | 0.0396 µM (active) | 0.659 µM (active) | 233 µM (inactive) | 1.67 µM (inactive) | 0.0908 µM (active) | – | 9.68 µM (inactive) | 0.82 | 0.726 µM (active) | 5.22 µM (inactive) | 1.4 µM (inactive) | 0.0436 µM (active) | 0.377 µM (active) | 3.05 µM (inactive) | 0.993 µM (active) | 1.46 µM (inactive) | 41.7 µM (inactive) | 21.9 µM (inactive) | 12.6 µM (inactive)
CCN(CC)C(=S)/N=C(\SC(=S)N(CC)CC)c1ccccc1 | 0.522 µM (active) | 18.6 µM (inactive) | 26.9 µM (inactive) | 24.1 µM (inactive) | 57.1 µM (inactive) | 15.1 µM (inactive) | – | 37.5 µM (inactive) | 27.7 | 27 µM (inactive) | 45.7 µM (inactive) | 14.6 µM (inactive) | 2.48 µM (inactive) | 58.5 µM (inactive) | 22.4 µM (inactive) | 29.9 µM (inactive) | 26.9 µM (inactive) | > 60.4 µM (inactive) | 25.2 µM (inactive) | 0.391 µM (active)
Nc1nc(NCCO)c(N=O)c(=O)[nH]1 | > 100 µM (inactive) | – | > 100 µM (inactive) | > 100 µM (inactive) | – | > 100 µM (inactive) | > 100 µM (inactive) | > 100 µM (inactive) | > 100 | > 100 µM (inactive) | > 100 µM (inactive) | > 100 µM (inactive) | > 100 µM (inactive) | > 100 µM (inactive) | > 100 µM (inactive) | > 100 µM (inactive) | – | – | – | –
COc1cc2c(cc1C)NC(=O)/C2=C/c1c(Cl)[nH]c2ccccc12 | 2.92 µM (inactive) | 4.05 µM (inactive) | 7.71 µM (inactive) | 7.87 µM (inactive) | 3.89 µM (inactive) | 4.48 µM (inactive) | – | 3.21 µM (inactive) | 3.38 | 10.3 µM (inactive) | 10.7 µM (inactive) | 4.89 µM (inactive) | 4.6 µM (inactive) | 4.69 µM (inactive) | 3.88 µM (inactive) | 3.28 µM (inactive) | 5.21 µM (inactive) | 2.74 µM (inactive) | 5.61 µM (inactive) | 3.55 µM (inactive)
COc1ccc(NC(=O)CC(=O)n2nc(C)c(/N=N/c3cccc(C)c3)c2C)cc1 | > 100 µM (inactive) | > 100 µM (inactive) | > 100 µM (inactive) | 40.8 µM (inactive) | > 100 µM (inactive) | > 100 µM (inactive) | – | > 100 µM (inactive) | > 100 | > 100 µM (inactive) | > 10 µM (inactive) | > 100 µM (inactive) | 91.8 µM (inactive) | 54.1 µM (inactive) | > 100 µM (inactive) | 37.6 µM (inactive) | > 100 µM (inactive) | > 100 µM (inactive) | > 100 µM (inactive) | 91.6 µM (inactive)
CCCC(=O)Nc1cc(C(=O)N2C[C@@H]3C[C@]34C2=CC(=O)c2[nH]cc(C)c24)n(COC)c1 | 5.93 µM (inactive) | 0.807 µM (active) | 2.21 µM (inactive) | 7.36 µM (inactive) | 3.28 µM (inactive) | 2.62 µM (inactive) | – | 12.4 µM (inactive) | 15.9 | 8.97 µM (inactive) | 9.79 µM (inactive) | 7.87 µM (inactive) | 12.2 µM (inactive) | 3.17 µM (inactive) | 2.59 µM (inactive) | 14 µM (inactive) | 7.33 µM (inactive) | 8.43 µM (inactive) | 2.78 µM (inactive) | 0.566 µM (active)
COc1cccc2c1C(=O)c1c(O)c3c(c(O)c1C2=O)C[C@@](O)(C(C)=O)CC3OC1CC(OC2CC(N)C(O)C(C)O2)C(O)C(C)O1 (stereo partly specified) | 74.6 µM (inactive) | 2.58 µM (inactive) | > 100 µM (inactive) | 22.1 µM (inactive) | 54.6 µM (inactive) | 18.4 µM (inactive) | – | 61.7 µM (inactive) | > 85.1 | 45.5 µM (inactive) | > 67.5 µM (inactive) | 29.4 µM (inactive) | 18.2 µM (inactive) | 23.9 µM (inactive) | 38.1 µM (inactive) | 36.8 µM (inactive) | 48.6 µM (inactive) | 32.5 µM (inactive) | 37.9 µM (inactive) | > 24.4 µM (inactive)

From ChEMBL document CHEMBL1201862, “PubChem BioAssay data set” (2004)
